Legend:
[1] = target: T1, Nitric oxide synthase (neuronal, human recombinant) nNOS (Homo sapiens, UniProt P29475); assay: nNOS (human) enzyme assay, [3H]-L-arginine to L-citrulline; assay type: biochemical; conditions: for IC50: Table 10, human nNOS, read-out: nNOSh; for e/n: Table 10, ratio eNOS/nNOS
T1 construct: purchased Axxora LLC ALX-201-068
Protocol: nNOS (Human), eNOS (Human) Enzyme Assay
Human nNOS and eNOS Protocol:
Procedure for Human nNOS and eNOS
Primary stock solutions of test compounds at a concentration of 6 mM are prepared. The primary stock solutions of each test compound are prepared freshly in distilled water on the day of study. […] Concentration range of test compound utilized for nNOS are 0.001 to 300 μM and for eNOS are 0.003 to 1000 μM. The vehicle of the test compound or inhibitor is used as blank control.
All incubations are performed in duplicate:
Prepare the reaction mixture on ice by adding the following components with a micropipette to a polypropylene microcentrifuge tube:
Total reaction volume is 60 μL.
Mix using a vortex mixer and incubate the above reaction mixture at 37° C. in an incubator for 30 minutes.
Add 400 μL of ice-cold Stop Buffer at the end of the incubation period to stop the reaction. (The EDTA in the Stop Buffer chelates all of the available calcium.)
Mix using a vortex mixer and transfer the reaction samples to spin cups and centrifuge using a microcentrifuge, at 13,000 rpm for 30 sec. at room temperature.
Remove the spin cups from the holder and transfer 450 μL of eluate (containing the unbound L-citrulline) to scintillation vials. Add 3 mL of scintillation fluid and quantify the radioactivity in a liquid scintillation counter.
Calculation of IC50 Values:
Data is analyzed using a Sigmoidal dose-response (variable slope) curve to determine the IC50 value of the test compound. Y=Bottom+(Top−Bottom)/(1+10^((Log IC50−X)*Hill Slope))

[2] = target: Recombinant human inducible NOS (iNOS) (Homo sapiens, UniProt P35228); assay: Human iNOS assay, radiometric; assay type: biochemical; conditions: Table 10, human iNOS; read-out: iNOSh
Protocol: Recombinant human inducible NOS (iNOS) was produced in Baculovirus-infected Sf9 cells (ALEXIS). […] 15 μL of test substances are added to the mixture with the specific enzyme and pre-incubated at RT for 15 min. • 2. […] The incubation is carried out at 37° C. for 45 min. • 4. […] An aliquot 70 μL of the supernatant is added to 100 μL scintillation fluid. • 8.
The total volume of the reaction mixture is 150 μL in every well. All assays are performed at least in duplicate. Standard deviations are 10% or less.

[3] = target: 5-HT1D (Bos taurus, UniProt F1MMU1); assay: 5-HT1D binding assay (agonist radioligand), bovine caudate membranes; conditions: Table 11, bovine 1D receptor binding; read-out: 5HT1D
Sequence of 5-HT1D (F1MMU1 1-377): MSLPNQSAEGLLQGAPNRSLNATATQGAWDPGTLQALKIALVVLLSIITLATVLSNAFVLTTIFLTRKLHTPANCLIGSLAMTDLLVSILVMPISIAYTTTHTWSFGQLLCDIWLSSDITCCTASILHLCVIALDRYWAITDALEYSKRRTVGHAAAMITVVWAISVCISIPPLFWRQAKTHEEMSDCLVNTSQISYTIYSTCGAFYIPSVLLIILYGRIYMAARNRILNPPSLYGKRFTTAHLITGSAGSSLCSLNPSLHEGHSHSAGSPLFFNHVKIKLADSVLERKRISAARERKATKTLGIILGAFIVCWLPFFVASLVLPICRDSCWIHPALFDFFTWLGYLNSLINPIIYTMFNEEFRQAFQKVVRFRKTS
Protocol: 5-HT1D binding assays (agonist radioligand) were performed using bovine caudate membranes according to the methods of Heuring and Peroutka (J. Neurosci., 7: 894-903 (1987)). 5-HT1B (rat cerebral cortex) binding assays (agonist radioligand) were performed according to the method of Hoyer et. al. (Eur. J. Pharmacol., 118: 1-12 (1995)). For the purpose of result analysis, the specific ligand binding to the receptors is defined as the difference between the total binding and the nonspecific binding as determined in the presence of an excess of unlabelled ligand. The results are expressed as a percent of control specific binding obtained in the presence of the test compounds.

[4] = test system: rats with experimental pancreatitis; assay: Pancreatitis visceral pain model (DBTC), referred abdominal hypersensitivity, von Frey; assay type: in vivo, rat
Protocol: Adult male Sprague Dawley rats (Harlan, Indianapolis, Ind.), weighing 150-200 g were maintained in a climate-controlled room with ad lib food and water on a 12-h light/dark cycle (lights on at 07:00 hours). All procedures followed the policies of the International Association for the Study of Pain and the NIH guidelines for the handling and use of laboratory animals. Studies were approved by the University of Arizona IACUC.
Pancreatitis was produced by a tail vein injection of dibutyltin dichloride (DBTC, Aldrich, Milwaukee, Wis., 0.25 cc) dissolved in 100% ethanol at a dose of 8 mg/kg under isofluorane anesthesia (2-3 liters/min, 4.0%/vol until anesthetized, then 2.5%/vol throughout the procedure) (Vera-Portocarrero et al., 2006). Control animals were injected with the vehicle solution only (100% ethanol, 0.25 cc).
Referred abdominal hypersensitivity in the pancreatitis model was quantified by measuring the number of withdrawals events evoked by application of a calibrated von Frey filament (determined by either abdominal withdrawal, licking of the abdominal area, or whole body withdrawal). Rats were placed inside Plexiglas boxes on an elevated fine fiberglass screen mesh and acclimated for 30 minutes before testing. A 4 g von Frey filament was applied from underneath through the mesh floor, to the abdominal area at different points on the surface. […] The mean occurrence of withdrawal events in each trial is expressed as the number of responses to 10 applications as previously described (Vera-Portocarrero et al., 2003).
Significant differences between each experimental group for the behavioral test across time were detected by a two-factor ANOVA follow by the Fishers Least Significance Difference post-hoc test. One-factor ANOVA was used to detect significant differences in behavioral outcomes within each experimental group over time. A linear regression analysis was used to detect the dose-dependency of the effects. Significance was established at the p<0.05 level.

T1 sequence (P29475 whole entry): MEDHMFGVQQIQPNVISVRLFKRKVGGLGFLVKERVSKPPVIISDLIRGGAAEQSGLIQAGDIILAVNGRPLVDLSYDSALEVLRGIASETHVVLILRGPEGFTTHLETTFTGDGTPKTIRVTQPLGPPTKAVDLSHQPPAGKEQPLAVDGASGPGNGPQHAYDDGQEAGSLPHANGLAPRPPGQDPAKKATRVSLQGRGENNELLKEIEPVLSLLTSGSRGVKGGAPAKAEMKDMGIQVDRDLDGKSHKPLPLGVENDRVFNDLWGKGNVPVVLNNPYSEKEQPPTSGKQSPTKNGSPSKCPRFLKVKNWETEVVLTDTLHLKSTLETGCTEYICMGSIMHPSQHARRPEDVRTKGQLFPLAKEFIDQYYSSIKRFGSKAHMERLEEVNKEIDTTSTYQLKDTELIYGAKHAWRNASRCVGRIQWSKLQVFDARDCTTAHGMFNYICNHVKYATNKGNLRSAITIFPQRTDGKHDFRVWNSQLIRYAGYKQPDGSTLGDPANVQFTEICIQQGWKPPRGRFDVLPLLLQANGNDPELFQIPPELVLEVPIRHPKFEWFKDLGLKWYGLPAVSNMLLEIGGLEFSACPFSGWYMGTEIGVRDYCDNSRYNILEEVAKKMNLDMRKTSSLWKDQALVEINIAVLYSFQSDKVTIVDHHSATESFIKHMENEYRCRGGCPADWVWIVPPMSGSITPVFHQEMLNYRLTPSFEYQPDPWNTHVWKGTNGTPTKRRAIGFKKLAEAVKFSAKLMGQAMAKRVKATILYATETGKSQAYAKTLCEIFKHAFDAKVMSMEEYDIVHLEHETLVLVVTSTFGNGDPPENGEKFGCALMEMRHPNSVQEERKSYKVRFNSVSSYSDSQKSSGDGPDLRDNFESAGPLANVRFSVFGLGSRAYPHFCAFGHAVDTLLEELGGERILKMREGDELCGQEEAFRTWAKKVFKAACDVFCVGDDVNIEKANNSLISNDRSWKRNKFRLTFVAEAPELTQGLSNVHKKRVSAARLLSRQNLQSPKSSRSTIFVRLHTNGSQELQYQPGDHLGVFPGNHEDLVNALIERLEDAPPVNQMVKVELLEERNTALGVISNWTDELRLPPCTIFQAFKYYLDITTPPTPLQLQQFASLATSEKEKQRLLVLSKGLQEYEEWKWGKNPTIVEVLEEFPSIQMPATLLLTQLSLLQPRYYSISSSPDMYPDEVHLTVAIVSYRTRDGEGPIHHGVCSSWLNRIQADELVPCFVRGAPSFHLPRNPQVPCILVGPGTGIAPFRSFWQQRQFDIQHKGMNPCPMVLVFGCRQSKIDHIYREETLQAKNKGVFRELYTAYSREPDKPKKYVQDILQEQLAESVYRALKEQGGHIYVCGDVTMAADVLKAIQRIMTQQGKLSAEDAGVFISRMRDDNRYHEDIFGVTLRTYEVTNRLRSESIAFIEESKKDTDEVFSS

Row | Structure (SMILES) | IC50 [1] | e/n [1] | IC50 [2] | IC50 [3] | reversal of tactile allodynia in pancreatitis visceral pain model [4]
1 | CN1CCC(c2c[nH]c3ccc(NC(=N)c4cccs4)cc23)C1 (single isomer, unassigned) [Compound 6b, N-(3-(1-Methylpyrrolidin-3-yl)-1H-indol-5-yl)thiophene-2-carboximidamide] | 205 nM | 100 | 20000 nM | 79 nM | reverse the tactile allodynia
2 | CN1CCC(c2c[nH]c3ccc(NC(=N)c4cccs4)cc23)C1 (single isomer, unassigned) [Compound 6a, N-(3-(1-Methylpyrrolidin-3-yl)-1H-indol-5-yl)thiophene-2-carboximidamide] | 680 nM | 67 | 25000 nM | 170 nM | does not reverse tactile allodynia

Reference: US8673909B2, “Indole compounds and methods for treating visceral pain” (NeurAxon, Inc., priority 2007, dated 2014)
